In the NIST ThermoML archive (doi:10.1021/je060124c):

Test: mn = molality of the nth substance listed, in mol/kg
Conditions: Liquid, Capillary tube (Ostwald / Ubbelohde) method

[Cl-].[Li+] [lithium chloride] + O
viscosity [mPa·s]
Conditions	100 kPa	10000 kPa	20000 kPa	40000 kPa
298.15 K, m1 = 0.0473	0.8971	0.8975	0.898	0.899
298.15 K, m1 = 0.1185	0.907	0.9075	0.908	0.909
298.15 K, m1 = 0.4814	0.9559	0.9562	0.957	0.958
298.15 K, m1 = 1.242	1.062	1.062	1.062	1.062
298.15 K, m1 = 2.621	1.289	1.29	1.291	1.292
298.15 K, m1 = 5.897	1.925	1.926	1.927	1.928
298.15 K, m1 = 7.863	2.535	2.536	2.537	2.538
298.15 K, m1 = 10.11	3.426	3.427	3.428	3.429
298.15 K, m1 = 12.7	5.414	5.416	5.418	5.42
298.15 K, m1 = 16.39	9.44	9.443	9.449	9.451
323.15 K, m1 = 0.0473	0.5513	0.5535	0.5551	0.5594
323.15 K, m1 = 0.1185	0.5573	0.5599	0.5618	0.5665
323.15 K, m1 = 0.4814	0.5884	0.5905	0.5927	0.5974
323.15 K, m1 = 1.242	0.6546	0.657	0.66	0.66
323.15 K, m1 = 2.621	0.7967	0.8	0.8028	0.8094
323.15 K, m1 = 5.897	1.206	1.21	1.215	1.224
323.15 K, m1 = 7.863	1.576	1.582	1.588	1.601
323.15 K, m1 = 10.11	2.116	2.123	2.131	2.147
323.15 K, m1 = 12.7	3.121	3.131	3.143	3.167
323.15 K, m1 = 16.39	5.173	5.19	5.209	5.249
348.15 K, m1 = 0.0473	0.381	0.3839	0.387	0.392
348.15 K, m1 = 0.1185	0.3851	0.388	0.391	0.3968
348.15 K, m1 = 0.4814	0.4072	0.4099	0.4128	0.4189
348.15 K, m1 = 1.242	0.4536	0.4575	0.462	0.462
348.15 K, m1 = 2.621	0.5541	0.5583	0.5621	0.5704
348.15 K, m1 = 5.897	0.8423	0.8484	0.8546	0.8667
348.15 K, m1 = 7.863	1.102	1.109	1.117	1.133
348.15 K, m1 = 10.11	1.466	1.476	1.487	1.507
348.15 K, m1 = 12.7	2.075	2.09	2.104	2.134
348.15 K, m1 = 16.39	3.293	3.316	3.339	3.386
370.2 K, m1 = 2.621	0.428	0.4328	0.4367	0.4449
370.4 K, m1 = 7.863	0.8587	0.867	0.8747	0.8907
370.45 K, m1 = 10.11	1.127	1.138	1.148	1.169
370.55 K, m1 = 12.7	1.53	1.544	1.559	1.587
370.7 K, m1 = 5.897	0.6536	0.6594	0.666	0.6781
371.25 K, m1 = 1.242	0.3462	0.3496	0.353	0.353
371.43 K, m1 = 0.4814	0.3099	0.313	0.3159	0.3217
372.06 K, m1 = 0.1185	0.2906	0.2912	0.2961	0.3015
372.33 K, m1 = 0.0473	0.2867	0.2894	0.2921	0.2975
372.4 K, m1 = 16.39	2.308	2.329	2.351	2.394
397.2 K, m1 = 5.897	–	0.5175	0.5233	0.5352
397.25 K, m1 = 12.7	–	1.162	1.175	1.202
397.6 K, m1 = 10.11	–	0.8792	0.8897	0.9092
398.95 K, m1 = 0.0473	–	0.2258	0.228	0.2335
399.2 K, m1 = 16.39	–	1.71	1.73	1.769
399.31 K, m1 = 7.863	–	0.6675	0.6758	0.6916
399.72 K, m1 = 2.621	–	0.3286	0.3327	0.3409
399.74 K, m1 = 0.1185	–	0.2261	0.2292	0.2339
399.75 K, m1 = 0.4814	–	0.24	0.243	0.2483
400.25 K, m1 = 1.242	–	0.2663	0.2696	0.2696
420.32 K, m1 = 0.4814	–	0.2047	0.2074	0.2127
421.03 K, m1 = 0.1185	–	0.1915	0.1941	0.199
421.96 K, m1 = 5.897	–	0.4291	0.435	0.4463
422.4 K, m1 = 1.242	–	0.2248	0.2281	0.2281
422.51 K, m1 = 10.11	–	0.7257	0.7354	0.7544
423.8 K, m1 = 12.7	–	0.9216	0.9345	0.9595
424.5 K, m1 = 16.39	–	1.333	1.351	1.386
424.51 K, m1 = 7.863	–	0.5562	0.564	0.5785
424.52 K, m1 = 0.0473	–	0.1848	0.1879	0.1928
425.84 K, m1 = 2.621	–	0.2701	0.2739	0.2812
446.9 K, m1 = 12.7	–	0.7773	0.7897	0.8123
447.18 K, m1 = 5.897	–	0.3666	0.3725	0.384
448.7 K, m1 = 10.11	–	0.6126	0.622	0.6415
448.75 K, m1 = 0.1185	–	0.1599	0.1628	0.1675
449.16 K, m1 = 0.0473	–	0.1575	0.16	0.1655
449.75 K, m1 = 16.39	–	1.091	1.108	1.141
449.82 K, m1 = 7.863	–	0.4786	0.4862	0.5006
450.7 K, m1 = 1.242	–	0.1876	0.1908	0.1908
450.74 K, m1 = 0.4814	–	0.1681	0.1707	0.1758
452.54 K, m1 = 2.621	–	0.2292	0.2329	0.2399
470.42 K, m1 = 1.242	–	0.1686	0.1717	0.1717
471.5 K, m1 = 5.897	–	0.322	0.3277	0.3385
471.52 K, m1 = 16.39	–	0.9346	0.951	0.982
472.03 K, m1 = 0.1185	–	0.1403	0.143	0.1477
472.3 K, m1 = 7.863	–	0.4267	0.4344	0.4487
472.52 K, m1 = 12.7	–	0.6626	0.6742	0.6964
473.7 K, m1 = 0.4814	–	0.1482	0.1509	0.1559
473.8 K, m1 = 10.11	–	0.5335	0.543	0.562
474.25 K, m1 = 0.0473	–	0.137	0.1394	0.1441
476.22 K, m1 = 2.621	–	0.2026	0.2064	0.2135
494.2 K, m1 = 1.242	–	0.1501	0.1532	0.1532
497.12 K, m1 = 2.621	–	0.1843	0.188	0.1951
497.2 K, m1 = 16.39	–	0.807	0.8237	0.8543
497.3 K, m1 = 0.4814	–	0.1323	0.135	0.1401
497.3 K, m1 = 7.863	–	0.3824	0.3901	0.4047
497.83 K, m1 = 0.0473	–	0.122	0.1245	0.1291
498.45 K, m1 = 0.1185	–	0.1233	0.1256	0.1303
499.3 K, m1 = 5.897	–	0.282	0.288	0.2988
499.52 K, m1 = 10.11	–	0.4719	0.4813	0.5
499.82 K, m1 = 12.7	–	0.5736	0.5853	0.6075
520.61 K, m1 = 1.242	–	0.1336	0.137	0.137
520.7 K, m1 = 7.863	–	0.3496	0.358	0.3733
521.37 K, m1 = 0.1185	–	0.111	0.1137	0.1187
521.42 K, m1 = 0.4814	–	0.119	0.1219	0.1271
522.35 K, m1 = 0.0473	–	0.1093	0.1125	0.1168
522.42 K, m1 = 2.621	–	0.1665	0.1706	0.1781
522.94 K, m1 = 10.11	–	0.4262	0.4365	0.4263
523.03 K, m1 = 12.7	–	0.5136	0.5262	0.5488
523.82 K, m1 = 16.39	–	0.7062	0.722	0.754
524.86 K, m1 = 5.897	–	0.2531	0.26	0.2718
545.92 K, m1 = 1.242	–	0.1203	0.124	0.124
547.5 K, m1 = 0.1185	–	0.0993	0.1018	0.1076
547.82 K, m1 = 16.39	–	0.6309	0.648	0.682
548.75 K, m1 = 0.4814	–	0.106	0.1091	0.1148
548.9 K, m1 = 12.7	–	0.4554	0.4693	0.494
549.25 K, m1 = 0.0473	–	0.0974	0.1009	0.106
549.32 K, m1 = 5.897	–	0.2338	0.2411	0.2537
550.4 K, m1 = 2.621	–	0.1487	0.1533	0.1615
573.1 K, m1 = 0.1185	–	0.0885	0.0922	0.0982
573.7 K, m1 = 5.897	–	0.2138	0.2229	0.239
573.81 K, m1 = 12.7	–	0.4053	0.422	0.449
573.86 K, m1 = 2.621	–	0.1352	0.1409	0.1502
574.03 K, m1 = 0.4814	–	0.0947	0.0986	0.1051
574.1 K, m1 = 0.0473	–	0.0871	0.0907	0.0966
574.21 K, m1 = 1.242	–	0.1064	0.111	0.111
574.23 K, m1 = 16.39	–	0.555	0.576	0.615
